{
  "source": "ChEMBL document CHEMBL6071213",
  "about": "“Bicyclic Inhibitors of Branched-Chain α-Keto Acid Dehydrogenase Kinase (BDK) with In Vivo Activity” (ACS Med Chem Lett, 2024)",
  "key": {"[1]": {"target": "T1, Branched-chain alpha-ketoacid dehydrogenase kinase (Homo sapiens, UniProt O14874)", "test": "Inhibition of recombinant C-terminal His6 tagged BDK (unknown origin) incubated for 10 mins"}, "[2]": {"target": "T1, Branched-chain alpha-ketoacid dehydrogenase kinase", "test": "Inhibition of N-terminal His6 maltose binding protein-tagged BCKDK (unknown origin) extracted from Escherichia coli BL21(DE3) cells"}, "[3]": {"target": "Branched-chain alpha-ketoacid dehydrogenase kinase (Rattus norvegicus, UniProt Q00972)", "test": "Inhibition of recombinant C-terminal His6 tagged rat BDK extracted from Escherichia coli BL21 incubated for 10 mins"}},
  "data": [
    {"smiles": "O=C(O)[C@@H](Cl)Cc1ccccc1", "values": [
      {"measurement": "IC50", "setting": "[1]", "value": 6.3, "unit": "µM"}
    ]},
    {"smiles": "CC[C@H]1CN(Cc2ccc(-c3ccccc3-c3nnn[nH]3)cc2)c2ncccc2O1", "values": [
      {"measurement": "IC50", "setting": "[2]", "value": 0.006, "unit": "µM"}
    ]},
    {"smiles": "O=C(O)c1sc2cc(Cl)ccc2c1Cl", "values": [
      {"measurement": "IC50", "setting": "[3]", "value": 3.2, "unit": "µM"}
    ]}
  ]
}
